Data published in patent publication US20240197869A1, “HYPERACTIVATORS OF MAMMALIAN DENDRITIC CELLS” (Corner Therapeutics, Inc., priority 2021, published 2024).

Columns and labels:
[1] = system: B16-F10 mouse melanoma tumor; test: Therapeutic whole tumor lysate vaccine in B16F10 tumor-bearing mice; format: in vivo, mouse (C57BL/6J)
Description: Ex vivo whole tumor lysate preparation. Syngeneic whole tumor lysates (WTL) were prepared from tumors explants of unimmunized tumor-bearing mice. Briefly, tumors from unimmunized mice bearing a tumor 10-12 mm of size were mechanically disaggregated using gentle MACS dissociator (Miltenyi Biotec) and enzymatically digested using the tumor Dissociation Kit (Miltenyi Biotec) following the manufacturer's protocol. After digestion, tumor cell suspensions were washed with PBS and passed through 70 um and then 30 um filters. Single cell suspension was depleted of CD45+ cells using anti-CD45 TILs microbeads (Miltenyi Biotec). Tumor cells were then counted and resuspended at 1×10^7 cells/ml then lysed by 3-4 cycles of freeze-thawing. The lysed cells were further disrupted by repeatedly passing the material through an 18G, then 21G, and finally 25G needles. Lysate was filtered again through 70 um and 30 um cell strainers and stored in aliquots at −80° C. until use. WTL were used for immunotherapy at a concentration equivalent to 5.75E5 tumor cells per mouse.
Immunotherapeutic immunization and tumor challenges. For immunizations in the context of an immunotherapeutic approach, C57BL/6J were injected on the left flank with 5×10^4 B16F10 cells. […] Mice received two boost injections at 7-day intervals.
Quantification and statistical analysis. In in vivo studies, n refers to the number of animals per condition from one or two independent experiments. Statistical differences were calculated by using unpaired two-tailed Student's t test, or one-way ANOVA with Tukey post-test. Dependent samples were analyzed with paired t tests. Statistical significance for experiments with more than two groups was tested with two-way ANOVA with Tukey multiple comparison test correction. All experiments were analyzed using Prism 7 (GraphPad Software). Graphical data was shown as mean values with error bars indicating the SD or SEM. P values of <0.05 (*), <0.01 (**) or <0.001(***);%0.0001 (****) indicated significant differences between groups.

[2] = system: murine, FLT3L-differentiated DC; test: Cytokine secretion by murine FLT3L-differentiated BMDC (ELISA); format: cell-based, mouse
Description: Murine FLT3L-differentiated, bone marrow-derived DC (BMDC) generation. Leg femur and tibia were removed from mice, cut with scissors and flushed into sterile tubes. Bone marrow suspension was treated with ACK for 1 minute, then passed through a 40 um cell strainer. Cells were counted and resuspended in media consisting of complete IMDM containing 10% FBS, penicillin and streptomycin, and supplements of L-glutamine and sodium pyruvate (I10). Cells were then plated at 5E6 bone marrow cells per well in a P12 plate. Recombinant mouse FLT3L (Miltenyi) was added to cultures at 200 ng/mL. Differentiated cells were used for subsequent assays on day 9. The efficiency of differentiation was monitored by flow cytometry using BD Symphony A3, and CD11c+MHC-II+ cells were routinely above 80% of living cells. For each experiment, five mice were used to collect BM and to generate DCs.
Murine FLT3L-differentiated BMDC (FLT3L-BMDC) hyperactivation. BMDCs were washed with PBS and re-plated in FLT3L-containing 110 at a concentration of 1.5×10^5 cells/well. Stimuli were added to cultures at indicated concentrations for a final volume of 200 uL/well. Twenty-four hours post-stimulation, cell culture supernatant was collected after centrifugation and stored at −20° C. to measure cytokine secretion. IL-1b, IL-6, IL-12p40, and TNF-alpha ELISA were performed using eBioscience Ready-SET-Go! (now ThermoFisher) ELISA kits according to the manufacturer's protocols. Cell viability was measured using Promega's Cell Titer-Glo reagent kits.

[3] = system: human monocyte-derived dendritic cells (moDCs); test: PAMP screen: IL-1β secretion by human moDCs with PRR agonist and 22:0 Lyso PC; format: cell-based; details: No PAMP, 20 μM 22:0 Lyso PC alone, human moDCs
Description: Pathogen-Associated Molecular Pattern (PAMP) Screen. Innate immune signaling pathway agonists were purchased from Invivogen. Lyophilized stocks were reconstituted and stored according to manufacturer's instructions and at recommended concentrations. […] Innate immune signaling agonists were diluted in R10 media to the manufacturer's recommended working concentration and then added onto cells. 22:0 Lyso PC was then reconstituted from a lyophilized stock in R10 and then further diluted. The lipid was added onto cells at a final concentration of 20 μM. Cells were incubated for 2 days, then cultures were collected for endpoint analyses.
(§1) Quantification of IL-1beta Secretion. IL-1beta secretion was assessed using the ELISA MAX Deluxe Set Human IL-1beta kit (Biolegend). ELISAs were performed according to manufacturer's instructions with the following modifications: i) total sample volume for incubation was reduced from […] the top standard was prepared at […], with two-fold dilutions to […]; and iii) sample incubation was completed overnight at 4 C on an orbital shaker. […] To determine IL-1beta concentration in supernatants, sample IL-1beta concentrations were interpolated using a standard curve via 4PL analysis on GraphPad Prism 9 (GraphPad Software). The interpolated results of samples were then adjusted for any dilutions made to the supernatant.

human PBMCs = test: Viability of human PBMCs (CellTiter-Glo); format: cell-based; details: 2 days post-activation; lipids combined with R848
Description: Isolation of PBMCs from Whole Blood. PBMCs were isolated from whole blood using density gradient centrifugation with Ficoll-Paque PLUS (Cytivia). Whole blood was diluted 1:1 with PBS, layered on top of Ficoll-Paque PLUS and centrifuged at 1000×g for 30 minutes at room temperature. PBMCs were collected, washed twice in PBS, and incubated with Ack lysis buffer (Lonza) to remove any remaining red blood cells.
Cell Culture and Stimulation. […] Cells were plated at 1×10^5 (canine cells) or 1×10^6 (human cells) per well in 96-well flat bottom tissue culture plates. Lyophilized Vaccigrade R848 (Invivogen) was reconstituted and diluted according to manufacturer's recommendations and added to cells at a final concentration of 1 μg/mL.
Quantification of Cell Viability.

[4] = system: human monocyte-derived dendritic cells (moDCs); test: Lipid titration: IL-1β secretion by LPS-activated human moDCs; format: cell-based
Description: as §1

[5] = system: human monocyte-derived dendritic cells (moDCs); test: Lipid titration: viability of human moDCs (CellTiter-Glo)
Description: Lipid Titration. After 6 days of differentiation into moDC, cells were collected and counted. Cells were replated at 100,000 cells/well in R10 media in 96-well flat bottom tissue culture-treated plates. LPS, serotype 055:B5 (Enzo Life Sciences) was added to a final concentration of 1 μg/mL in each well. After the addition of LPS, lipids were prepared. […] After two days of culture, cell cultures were used for endpoint analyses.
Endpoint Analyses. After culturing moDCs with PAMPs and DAMPs for two days, supernatant and cell samples were collected for analysis. Cells in culture were pelleted by centrifugation at 400×g for 5 min.
Quantification of Cell Viability. Cell viability was assessed by quantifying the presence of ATP as an indicator of metabolically active cells using the CellTiter-Glo Luminescent Cell Viability Assay (Promega). Metabolic activity was assessed following manufacturer's instructions. The CellTiter-Glo reagent was mixed with the cell pellets and remaining supernatant, and transferred to a white, opaque 96-well plate. Luminescence was measured on all wavelengths on a Spectramax iD3 plate reader (Molecular Devices) using an integration time of 500 ms. Percent viability was calculated relative to the control condition of moDCs treated with LPS.
Statistical Analyses. […] For each tested condition, cells from each donor were plated to be tested in triplicate.

[6] = WTL 80 ug + R848 100 ug + 65 ug lipid in […]% KP407, 2 boosts every 7 days
[7] = R848 + 41 uM lipid in PBS or KP407, 24 h

Compound: CCCCCCCCCCCCCCCCCCCCCC(=O)OC[C@@H](O)COP(=O)([O-])OCC[N+](C)(C)C [22:0 LYSO PC, 1-behenoyl-2-hydroxy-sn-glycero-3-phosphocholine]
- survival of tumor-bearing mice (in words) [1, 6]: survived longer
- tumor growth kinetics (in words) [1, 6]: delayed tumor growth kinetics
- benefit of vaccination (in words) ([1]; tumor lysate + R848 + lipid in PBS): No significant benefit
- IL-1beta secretion (in words) ([2]; 22:0 Lyso PC without R848): failed to induce IL-1beta secretion
- IL-6 secretion (in words) [2, 7]: high TNF-alpha and IL-6 secretion
- TNF-alpha secretion (in words) [2, 7]: high TNF-alpha and IL-6 secretion
- TNF-alpha secretion (in words) ([2]; R848 + lipid in KP407): small boost in TNF-alpha secretion
- lipid concentration superior in supporting IL-1beta secretion while retaining cell viability ([2]; formulated in KP407 + R848): 41 µM
- IL-1beta secretion (in words) ([2]; lipid formulated in 5% KP407 + R848 1 ug/mL, 24 h): induced IL-1beta secretion in a dose dependent manner
- IL-1beta secretion (in words) ([2]; lipid resuspended in PBS, different concentrations, + R848 1 ug/mL, 24 h): unable to induce IL-1beta secretion
- IL-1β secretion ([3]; Table 1-7, 10 donors): 1.1 pg/mL
- IL-1β secretion ([3]; Table 1-8): 1.0 pg/mL
- human PBMC viability (in words) (human PBMCs): remain viable
- concentration lower than PGPC for comparable IL-1beta secretion ([4]; 10.3 μM 22:0 Lyso PC vs 82.5 μM PGPC, + LPS): ~8 times
- IL-1beta secretion (in words) ([4]; 10.3 μM lipid + LPS): retained its ability to induce IL-1beta secretion
- IL-1β secretion ([4]; 10.3 μM lipid + LPS 1 μg/mL, 2 days, Table 1-5): 224.8 pg/mL
- IL-1beta secretion (in words) ([4]; 20.6 μM lipid + LPS): increased IL-1beta secretion
- IL-1β secretion ([4]; 20.6 μM lipid + LPS, human moDCs, 4 donors, mean (SD in wrapped line below)): 512.6 pg/mL
- lipid activity index, ranking in words ([4]; lipid 1.3-82.5 μM + LPS): most potent activity by far
- Activity Units (AU) ± SD (lipid activity index) ([4]; reciprocal of lowest concentration giving IL-1β two-fold over LPS x highest IL-1β signal, lipid 1.3-82.5 μM + LPS): 370.00 ± 376.36 AU
- moDC viability (in words) ([5]; 10.3 μM lipid + LPS): retained high viability
- Relative Viability (%) ± SD ([5]; 10.3 μM lipid + LPS 1 μg/mL, 2 days, relative to LPS-treated moDCs, Table 1-5): 89.1%
- moDC viability (in words) ([5]; 20.6 μM lipid + LPS): reduced cell viability somewhat
